Test results published in patent US9505734B2, “Phenyl C-glucoside derivative containing deoxyglucose structure, preparation method and use thereof” (Tianjin Institute of Pharmaceutical Research, priority 2012, dated 2016).

Test system: SD rats (type 2 diabetes model)
Assay: model for rat urine glucose excretion (glucose-oxidase method)
Assay type: in vivo
Conditions: for Urine glucose excretion (mg/200 g body weight of the rat): type 2 diabetes model SD rats, 6 mg/kg intragastrically, glucose 2 g/kg at 0.5 h, urine collected 0-12 h; for urine glucose excretion effect (in words): comparison in words, rat urine glucose excretion model, 6 mg/kg
Description: The health SD rats are injected intraperitoneally with multiple low doses of streptozotocin for modeling (type 2 diabetes model) after feeding with high-fat and high-sucrose diet, and the content of blood glucose is measured before and after modeling. After the modeling successful, the rats for modeling are randomly divided (8 rats/group) into one blank group (administering the same volume of 0.5% CMC sodium solution) and several groups for compounds to be tested (6 mg/kg) according to the content of 24-hour urine glucose and the body weight. Rats in each group are fasted for 16 hours before experiment. The experimental rats are administered intragastrically with glucose (2 g/kg) at 0.5 h after intragastrical administration with compounds to be tested. The urine is collected at the time-period of 0-12 h after administration, and the urine glucose values are measured at each time-period by glucose-oxidase method.
The inhibiting activity of the cocrystal of I-D1-6 and L-proline on SGLT2 is measured by the model for rat urine glucose excretion.
The health SD rats are injected intraperitoneally with multiple low doses of streptozotocin for modeling (type 2 diabetes model) after feeding with high-fat and high-sucrose diet for one month, and the content of blood glucose is measured before and after modeling. After the modeling successful, the rats for modeling are randomly divided (8 rats/group) into one blank group (administering the same volume of 0.5% CMC sodium solution) and groups of tested compound (6 mg/kg) according to the content of 24-hour urine glucose and the body weight. Rats in each group are fasted for 16 hours before experiment. The experimental rats are administered intragastrically with the glucose (2 g/kg) at 0.5 h after intragastrical administration with the cocrystal of I-D1-6 and L-proline prepared in Example 138. The urine is collected at the time-period of 0-12 h after administration, and the urine glucose values are measured at each time-period by glucose-oxidase method.

Structure (SMILES) | Urine glucose excretion (mg/200 g body weight of the rat) | urine glucose excretion effect (in words)
CCc1ccc(Cc2cc(C3OC4(CC4)C(O)C(O)C3O)ccc2C)cc1 (stereo not shown) | 609 mg/200 g body weight of the rat | –
C=C1OC(c2ccc(Cl)c(Cc3ccc(OCC)cc3)c2)C(O)C(O)C1O (stereo not shown) | 457 mg/200 g body weight of the rat | –
CCOc1ccc(Cc2cc(C3OC(OC)C(O)C(O)C3O)ccc2Cl)cc1 (stereo not shown) | 644 mg/200 g body weight of the rat | –
COc1ccc(Cc2cc(C3OC(C)C(O)C(O)C3O)ccc2C(F)(F)F)c(F)c1F (stereo not shown) | 622 mg/200 g body weight of the rat | –
CCOc1ccc(Cc2cc(C3OC(C)C(O)C(O)C3O)ccc2OC)cc1 (stereo not shown) | 688 mg/200 g body weight of the rat | –
COc1ccc(Cc2cc(C(C)C)cc(C3OC(C)C(O)C(O)C3O)c2)c(F)c1 (stereo not shown) | 523 mg/200 g body weight of the rat | –
C#Cc1ccc(Cc2cc(C3OC(C)C(O)C(O)C3O)ccc2Cl)cc1 (stereo not shown) | 671 mg/200 g body weight of the rat | –
CCc1ccc(Cc2cc(C3OC(C)C(O)C(O)C3O)ccc2C)cc1 (stereo not shown) | 613 mg/200 g body weight of the rat | –
COc1ccc(Cc2cc(C3OC(CO)CC(O)C3O)ccc2Cl)cc1 (stereo not shown) | 310 mg/200 g body weight of the rat | –
C#Cc1ccc(Cc2cc(C3OC(CO)CC(O)C3O)ccc2OC)cc1 (stereo not shown) | 328 mg/200 g body weight of the rat | –
CCc1ccc(Cc2cc(C3OC(CO)C(O)CC3O)ccc2C)cc1 (stereo not shown) | 230 mg/200 g body weight of the rat | –
CCOc1ccc(Cc2cc(C3OC(C)(C)C(O)C(O)C3O)ccc2Cl)cc1 (stereo not shown) | 470 mg/200 g body weight of the rat | –
C=C1OC(c2ccc(Cl)c(Cc3ccc(OC)cc3)c2)C(O)C(O)C1O (stereo not shown) | 410 mg/200 g body weight of the rat | –
CCCCOc1ccc(Cc2cc(C3OC(C)C(O)C(O)C3O)ccc2Cl)cc1 (stereo not shown) | 721 mg/200 g body weight of the rat | –
COc1ccc(Cc2cc(C)cc(C3OC(C)C(O)C(O)C3O)c2)cc1F (stereo not shown) | 539 mg/200 g body weight of the rat | –
CCc1ccc(Cc2cc(C3OC(C)C(O)C(O)C3O)ccc2OC)cc1 (stereo not shown) | 439 mg/200 g body weight of the rat | –
COc1ccc(Cc2cc(C3OC(CO)CC(O)C3O)ccc2Cl)c(F)c1 (stereo not shown) | 288 mg/200 g body weight of the rat | –
C#Cc1ccc(Cc2cc(C3OC(CO)CC(O)C3O)ccc2Cl)cc1 (stereo not shown) | 213 mg/200 g body weight of the rat | –
CCc1ccc(Cc2cc(C3CC(O)C(O)C(CO)O3)ccc2C)cc1 (stereo not shown) | 378 mg/200 g body weight of the rat | –
CCc1ccc(Cc2cc(C3OC(CO)C(O)CC3O)ccc2Cl)cc1 (stereo not shown) | 198 mg/200 g body weight of the rat | –
COc1ccc(Cc2cc(C3OC(CO)C(O)CC3O)ccc2Cl)cc1 (stereo not shown) | 235 mg/200 g body weight of the rat | –
Cc1ccc(C2OC(C)C(O)C(O)C2O)cc1Cc1ccc(OC2CCOC2)cc1 (stereo not shown) | 611 mg/200 g body weight of the rat | –
CCc1ccc(Cc2cc(C3CC(O)C(O)C(CO)O3)ccc2Cl)cc1 (stereo not shown) | 412 mg/200 g body weight of the rat | –
COc1ccc(Cc2cc(C3CC(O)C(O)C(CO)O3)ccc2Cl)cc1 (stereo not shown) | 426 mg/200 g body weight of the rat | –
CCOc1ccc(Cc2cc([C@@H]3C[C@@H](O)[C@H](O)[C@@H](CO)O3)ccc2Cl)cc1 [I-D1-2, (1S)-1-[4-chloro-3-(4-ethoxybenzyl)phenyl]-1,2-dideoxy-D-glucose] | – | stronger urine glucose excretion effect
CCOc1ccc(Cc2cc([C@@H]3O[C@H](CO)[C@@H](O)C[C@H]3O)ccc2Cl)cc1 [I-D1-3, (1S)-1-[4-chloro-3-(4-ethoxybenzyl)phenyl]-1,3-dideoxy-D-glucose] | – | stronger urine glucose excretion effect
CCOc1ccc(Cc2cc([C@@H]3O[C@H](CO)C[C@H](O)[C@H]3O)ccc2Cl)cc1 [I-D1-4, (1S)-1-[4-chloro-3-(4-ethoxybenzyl)phenyl]-1,4-dideoxy-D-glucose] | – | stronger urine glucose excretion effect
CCOc1ccc(Cc2cc(C3OC(CO)C(O)C(O)C3O)ccc2Cl)cc1 (stereo not shown) [drawing 194] | 743 mg/200 g body weight of the rat | –

Structure (SMILES) | Urine glucose excretion (mg/200 g body weight of the rat) | urine glucose excretion effect (in words)
OCC1OC(c2ccc(F)c(Cc3cc4ccccc4s3)c2)C(O)C(O)C1O (stereo not shown) [drawing 195] | 621 mg/200 g body weight of the rat | –
Cc1ccc(C2OC(CO)C(O)C(O)C2O)cc1Cc1ccc(-c2ccc(F)cc2)s1 (stereo not shown) [drawing 196] | 655 mg/200 g body weight of the rat | –
OCC1OC(c2ccc(Cl)c(Cc3ccc(O[C@H]4CCOC4)cc3)c2)C(O)C(O)C1O (stereo partly shown) [drawing 197] | 643 mg/200 g body weight of the rat | –
CCc1ccc(Cc2c(Cl)ccc3c2COC32OC(CO)C(O)C(O)C2O)cc1 (stereo not shown) [drawing 198] | 587 mg/200 g body weight of the rat | –
CCOc1ccc(Cc2cc([C@]34OC[C@](CO)(O3)[C@@H](O)[C@H](O)[C@H]4O)ccc2Cl)cc1 [drawing 199] | 455 mg/200 g body weight of the rat | –
CCOc1ccc(Cc2cc(C3SC(CO)C(O)C(O)C3O)c(OC)cc2C)cc1 (stereo not shown) [drawing 211] | 625 mg/200 g body weight of the rat | –
COc1ccc(Cc2cc(C3OC(C)C(O)C(O)C3O)ccc2Cl)cc1 (stereo not shown) [drawing 213] | 736 mg/200 g body weight of the rat | –
CCOc1ccc(Cc2cc(C3OC(C)C(O)C(O)C3O)ccc2C)cc1 (stereo not shown) [drawing 216] | 700 mg/200 g body weight of the rat | –
CCCOc1ccc(Cc2cc(C3OC(C)C(O)C(O)C3O)ccc2Cl)cc1 (stereo not shown) [drawing 217] | 712 mg/200 g body weight of the rat | –
CCOc1ccc(Cc2cc(C3OC(C)C(O)C(O)C3O)ccc2Cl)cc1 (stereo not shown) [drawing 219] | 833 mg/200 g body weight of the rat | –
CCOc1ccc(Cc2cc(C3OC(CO)CC(O)C3O)ccc2Cl)cc1 (stereo not shown) [drawing 226] | 880 mg/200 g body weight of the rat | –
CCOc1ccc(Cc2cc(C3CC(O)C(O)C(CO)O3)ccc2Cl)cc1 (stereo not shown) [drawing 227] | 811 mg/200 g body weight of the rat | –
Cc1ccc(C2OC(CO)CC(O)C2O)cc1Cc1ccc(-c2ccc(F)cc2)s1 (stereo not shown) [drawing 228] | 801 mg/200 g body weight of the rat | –
Cc1ccc(C2CC(O)C(O)C(CO)O2)cc1Cc1ccc(-c2ccc(F)cc2)s1 (stereo not shown) [drawing 229] | 698 mg/200 g body weight of the rat | –
CC1OC(c2ccc(F)c(Cc3cc4ccccc4s3)c2)C(O)C(O)C1O (stereo not shown) [drawing 230] | 749 mg/200 g body weight of the rat | –
OCC1OC(c2ccc(Cl)c(Cc3ccc(O[C@H]4CCOC4)cc3)c2)C(O)CC1O (stereo partly shown) [drawing 231] | 721 mg/200 g body weight of the rat | –
CC1OC(c2ccc(Cl)c(Cc3ccc(O[C@H]4CCOC4)cc3)c2)C(O)C(O)C1O (stereo partly shown) [drawing 233] | 748 mg/200 g body weight of the rat | –
OCC1OC(c2ccc(Cl)c(Cc3ccc(O[C@H]4CCOC4)cc3)c2)CC(O)C1O (stereo partly shown) [drawing 234] | 744 mg/200 g body weight of the rat | –
CCOc1ccc(Cc2cc(C3OC(CO)C(O)CC3O)ccc2Cl)cc1 (stereo not shown) [drawing 237] | 828 mg/200 g body weight of the rat | –
Cc1ccc(C2OC(C)C(O)C(O)C2O)cc1Cc1ccc(-c2ccc(F)cc2)s1 (stereo not shown) [drawing 238] | 723 mg/200 g body weight of the rat | –
Cc1ccc(C2OC(CO)C(O)CC2O)cc1Cc1ccc(-c2ccc(F)cc2)s1 (stereo not shown) [drawing 239] | 772 mg/200 g body weight of the rat | –
OCC1OC(c2ccc(F)c(Cc3cc4ccccc4s3)c2)C(O)CC1O (stereo not shown) [drawing 240] | 656 mg/200 g body weight of the rat | –
OCC1CC(O)C(O)C(c2ccc(F)c(Cc3cc4ccccc4s3)c2)O1 (stereo not shown) [drawing 241] | 689 mg/200 g body weight of the rat | –
OCC1OC(c2ccc(F)c(Cc3cc4ccccc4s3)c2)CC(O)C1O (stereo not shown) [drawing 242] | 716 mg/200 g body weight of the rat | –
COc1ccc(Cc2cc(C3OC(C)C(O)C(O)C3O)ccc2Cl)cc1 (stereo not shown) [drawing 243] | 457 mg/200 g body weight of the rat | –
OCC1CC(O)C(O)C(c2ccc(Cl)c(Cc3ccc(O[C@H]4CCOC4)cc3)c2)O1 (stereo partly shown) [drawing 244] | 723 mg/200 g body weight of the rat | –
CCc1ccc(Cc2c(Cl)ccc3c2COC32OC(CO)CC(O)C2O)cc1 (stereo not shown) [drawing 245] | 634 mg/200 g body weight of the rat | –
